Reference: patent publication US12391696B2, “Pyrrolopyrazole derivatives, preparation method thereof and application thereof in medicine” (SHANGHAI MEDICILON INC., priority 2019, dated 2025)

target: H+/K+ ATPase (Oryctolagus cuniculus (Rabbit), UniProt P27112); experiment: Determination of compounds' inhibition of H+/K+ ATPase enzyme activity; format: biochemical; settings: H+/K+ ATPase extracted from rabbit stomach; malachite green detection, 500 μM ATP, pH 6.5
Text: Determination of Compounds' Inhibition of H^+/K^+ ATPase Enzyme Activity
The following experiment is used to determine the inhibitory effect of the compound of the present invention on the H+/K+ATPase enzyme activity.
• Plate reader: SpectraMax M5(MD) • Malachite Green (Sigma Aldrich, 213020-25G) • Ammonium molybdate (Sigma Aldrich, 277908-20G) • ATP (Sigma Aldrich, A1852-1VL). 2. Buffer Preparation
Enzyme working solution: titrating the enzyme, diluting the enzyme with buffer 1, and during the reaction, taking 5 μl of the diluted solution into 50 μl reaction system.
ATP solution: 100 mM ATP was diluted to 5 mM with no K+buffer, and 5 μl of the diluted solution was added to the 50 μl reaction system, that is, the final concentration of ATP was 500 μM.
MLG color development liquid: 0.12% MLG, 7.5% ammonium molybdate, 11% Tween-20 was mixed as 100:25:2, and adding 15 μl of the mixture into each well during detection.
Buffer 1: 50 mM Tris-HCl pH 6.5, 5 mM magnesium chloride (magnesium chloride), 10 μM valinomycin (valinomycin).
Buffer 2: 50 mM Tris-HCl pH 6.5, 5 mM magnesium chloride (magnesium chloride), 10 μM valinomycin (valinomycin), 20 mM KCl.
Homogenization buffer: 10 mmol/L Tris-HCl, pH 6.8, 0.25M sucrose (sucrose), 1 mmol/LEDTA
7.5% Ficoll layering solution: homogenization buffer+7.5% (W/W) (Ficoll 400).
3.1. H^+/K^+ ATPase Enzyme Extraction
(1) The stomach tissue of the rabbit was separated, and the blood was washed with tap water, food residue.
(2) The fundus portion was thoroughly washed with pre-cooled NaCl solution to remove surface mucus.
(3) The stripped mucosa was filled into a sample bag or a 50 ml centrifuge tube, and quickly freezing in a liquid nitrogen tank.
(4) The tissue was removed, minced with surgical scissors, and a pre-cooled homogenization buffer (4 ml/g tissue) was added and homogenized in a tissue homogenizer for 2 to 10 minutes.
(5) After homogenization, if there were larger tissue particles, they could be removed by centrifugation (600 g, 10 min), and then the supernatant was transferred to a clean centrifuge tube. After centrifugation at 20000 g for 30 minutes, then the supernatant was transferred to a clean centrifuge tube at 100000 g for 90 minutes and the precipitate was collected.
(6) Resuspending the precipitate with homogenization buffer, blowing uniformly, adding 7.5% Ficoll layering solution at equal ratio, centrifuging at 100000 g for 90 minutes, and collecting the precipitate.
(7) Resuspending the precipitate with homogenization buffer, blowing uniformly, and the protein concentration was measured by Bradford. Freezing in tubes at −80° C. for later use.
3.2. H^+/K^+ ATPase Activity Experiment
(1) Adding 35 μl of reaction buffer to each experimental well, and then added 35 μl of buffer 1.
(2) Adding 5 μl buffer 1 containing 10% DMSO to the whole enzyme and buffer well.
(3) Adding 5 μl of 10× compound working solution to the compound well and mixing well.
(4) Adding 5 μl of buffer 1 to the buffer well.
(5) Adding 5 μl of 10× enzyme working solution to the remaining wells, mixing and incubating at 37° C. for 30 minutes
(6) Adding 5 μl of 10× ATP working solution to all experimental wells, and incubating at 37° C. for 20 min.
(7) Adding 15 μl MLG chromogenic solution to all experimental wells, and uniformly mixing and incubating at room temperature for 5-30 min.
(8) The reading number of 620 nm was detected by an M5 instrument. […]

H+/K+ ATPase, sequence (P27112 whole entry): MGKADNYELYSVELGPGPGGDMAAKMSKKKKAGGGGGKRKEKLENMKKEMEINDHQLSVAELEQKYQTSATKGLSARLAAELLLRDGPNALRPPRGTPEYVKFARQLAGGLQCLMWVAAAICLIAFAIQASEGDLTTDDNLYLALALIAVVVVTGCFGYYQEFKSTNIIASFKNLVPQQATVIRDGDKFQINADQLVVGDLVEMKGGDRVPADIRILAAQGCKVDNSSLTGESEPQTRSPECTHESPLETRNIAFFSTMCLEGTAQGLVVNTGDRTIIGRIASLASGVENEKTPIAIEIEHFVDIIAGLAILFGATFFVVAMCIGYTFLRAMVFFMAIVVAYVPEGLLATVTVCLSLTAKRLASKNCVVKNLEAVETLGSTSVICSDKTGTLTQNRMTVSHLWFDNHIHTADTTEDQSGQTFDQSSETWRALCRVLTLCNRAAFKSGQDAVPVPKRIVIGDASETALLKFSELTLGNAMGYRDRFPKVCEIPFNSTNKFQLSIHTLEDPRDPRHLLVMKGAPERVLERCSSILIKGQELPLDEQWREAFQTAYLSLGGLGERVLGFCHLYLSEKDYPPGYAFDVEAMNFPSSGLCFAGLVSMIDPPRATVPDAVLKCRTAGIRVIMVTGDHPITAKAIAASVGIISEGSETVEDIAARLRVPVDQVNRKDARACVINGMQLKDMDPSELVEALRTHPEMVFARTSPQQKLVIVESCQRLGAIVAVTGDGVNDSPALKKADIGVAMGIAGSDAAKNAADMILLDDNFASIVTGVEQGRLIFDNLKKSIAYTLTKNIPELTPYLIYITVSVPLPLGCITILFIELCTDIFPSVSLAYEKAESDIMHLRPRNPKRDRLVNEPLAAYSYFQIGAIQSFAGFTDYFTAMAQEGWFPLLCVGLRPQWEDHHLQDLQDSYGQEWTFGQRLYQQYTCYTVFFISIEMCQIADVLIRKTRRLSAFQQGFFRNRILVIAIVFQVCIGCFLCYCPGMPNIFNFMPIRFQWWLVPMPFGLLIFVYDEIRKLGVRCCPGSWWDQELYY
H+/K+ ATPase, sequence (P18597 whole entry partner): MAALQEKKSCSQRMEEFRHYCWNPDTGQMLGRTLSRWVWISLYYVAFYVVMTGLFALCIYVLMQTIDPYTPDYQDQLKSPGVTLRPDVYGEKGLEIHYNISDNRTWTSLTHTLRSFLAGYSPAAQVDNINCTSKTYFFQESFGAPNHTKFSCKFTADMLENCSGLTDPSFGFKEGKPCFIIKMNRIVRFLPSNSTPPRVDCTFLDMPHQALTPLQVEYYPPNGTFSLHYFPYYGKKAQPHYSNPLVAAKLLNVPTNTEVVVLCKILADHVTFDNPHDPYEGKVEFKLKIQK

Compared with `CN1Cc2nn(Cc3cccc(N4CCOCC4)c3)c(-c3ccccc3F)c2C1` [Example 1, 4-(3-((3-(2-fluorophenyl)-5-methyl-5,6-dihydropyrrolo [3,4-c]pyrazole-2(4H)-yl)methyl)phenyl) morpholine], `CN1Cc2nn(Cc3cccc(N4CCCC4)c3)c(-c3ccccc3F)c2C1` [Example 3, 3-(2-fluorophenyl)-5-methyl-2-(3-(pyrrolidin-1-yl)benzyl)-2,4,5,6-tetrahydropyrrolo[3,4-c]pyrazole] is 4.5-fold higher in IC50: 410 nM for the first, 1860 nM for the second. The first is the more potent here.

`CN1Cc2nn(Cc3cccc(N4CCCCC4)c3)c(-c3ccccc3F)c2C1` [Example 2, 3-(2-fluorophenyl)-5-methyl-2-(3-(piperidin-1-yl)benzyl)-2,4,5,6-tetrahydropyrrolo[3,4-c]pyrazole] and `CN1CCN(c2cccc(Cn3nc4c(c3-c3ccccc3F)CN(C)C4)c2)CC1` [Example 4, 3-(2-fluorophenyl)-5-methyl-2-(3-(4-methylpiperazin-1-yl)benzyl)-2,4,5,6-tetrahydro pyrrolo [3,4-c] pyrazole] are within 1.5-fold of each other in IC50: 431 nM for the first, 580 nM for the second.

Compound `CN1Cc2nn(Cc3cccc(N4CCC(N5CCCCC5)CC4)c3)c(-c3ccccc3F)c2C1` [Example 5, 2-(3-([1,4′-Bipiperidine]-1′-yl)benzyl)-3-(2-fluorophenyl)-5-methyl-2,4,5,6-tetrahydropyrrolo[3,4-c]pyrazole] has an IC50 of 2580 nM.
